Drawing on patent US12168012B2, “NLRP3 inflammasome inhibitors” (Novartis AG, priority 2018, dated 2024), this text covers IC50 for eleven molecules.

The structures appear in SMILES notation. Where a name gives a salt, the structure may show the parent alone.

One assay has as its system NLRP3 inflammasome. Put plainly: IL-1β secretion assay. It counts as cell-based. The settings on record: Homo sapiens, THP-1, 3 h, PMA-differentiated THP-1 cells, 15 μM nigericin, HTRF. Here is the method: 10 μL supernatant was removed, and IL-1p levels were monitored using an HTRF assay (CisBio, #62IL1PEC) according to manufacturers' instructions. Viability and pyroptosis was monitored with the addition of PrestoBlue cell viability reagent (Life Technologies, #A13261) directly to the cell culture plate.
IC50 values were calculated from the plot of percentage of inhibition versus the inhibitor concentration by a logistics fit according to: y=A2+(A1−A2)/(1+(x/IC50)^p) where y is the %-inhibition at the inhibitor concentration, x. A1 is the lowest inhibition value, i.e. 0%, and A2 the maximum inhibition value, i.e. 100%. The exponent, p, is the Hill coefficient. The curve fitting was conducted with an internally developed software suite.
NLRP3-dependent IL-1β secretion was stimulated in PMA-differentiated THP-1 cells by the addition of nigericin, and cytokines were measured in the […] after 3 hours. As discussed above, activation of the NLRP3 inflammasome requires both an NF-kB-dependent priming step and the addition of a NLRP3 activator.

Assay [1] concerns NF-kB-dependent TNF-α secretion. Put plainly: TNF-α secretion assay (counterscreen). It counts as cell-based. The note with it: Homo sapiens; THP-1 cells, Pam3CSK4-stimulated, 3 hours, HTRF. The protocol: Monocytic THP-1 cells were maintained according to providers' instructions in RPMI media as described above. Undifferentiated cells were plated at 50,000 cells per well in a 384-well flat-bottom cell culture plates (Greiner, #781986), and allowed to rest overnight. Experimental compounds were prepared and added as described above. TNF-α secretion was triggered by the addition of either 1 μg/mL LPS (Sigma, #L4391) or 100 ng/mL Pam3CSK4 (Invivogen, #tlrl-pms) depending on the experiment, and cells were incubated for 3 hours. 10 μL supernatant was removed, and TNF-α levels were monitored using an HTRF assay (CisBio, #62TNFPEC) according to manufacturers' instructions. Viability was monitored as described above.
IC50 values were calculated from the plot of percentage of inhibition versus the inhibitor concentration by a logistics fit according to: y=A2+(A1−A2)/(1+(x/IC50)^p) where y is the %-inhibition at the inhibitor concentration, x. A1 is the lowest inhibition value, i.e. 0%, and A2 the maximum inhibition value, i.e. 100%. The exponent, p, is the Hill coefficient. The curve fitting was conducted with an internally developed software suite. […]

Take `CC(C)(O)c1nn(CC(=O)N[C@@H]2CCC[C@H](O)C2)c(=O)c2cc3sc(Cl)cc3n12` [Ex 81, 2-(2-Chloro-5-(2-hydroxypropan-2-yl)-8-oxothieno[2′,3′:4,5]pyrrolo[1,2-d][1,2,4]triazin-7(8H)-yl)-N-((1R,3S)-3-hydroxycyclohexyl)acetamide]: the figures for the IC50 (in the assay on NLRP3 inflammasome; in assay [1]) were 3.9 nM and more than 100000 nM, respectively.
For the molecule `CC(C)c1nn(CC(=O)NC2(CO)CC2)c(=O)c2cc3sc(Cl)cc3n12` [Ex 111, 2-(2-Chloro-5-isopropyl-8-oxothieno[2′,3′:4,5]pyrrolo[1,2-d][1,2,4]triazin-7(8H)-yl)-N-(1-(hydroxymethyl)cyclopropyl)acetamide], the values for the IC50 (in the assay with NLRP3 inflammasome; in assay [1]) were 111 nM and more than 100000 nM, respectively.
`CC(C)c1nn(CC(=O)N[C@@H]2CCCNC2)c(=O)c2cc3sc(F)cc3n12` [Ex 31, (R)-2-(2-Fluoro-5-isopropyl-8-oxothieno[2′,3′:4,5]pyrrolo[1,2-d][1,2,4]triazin-7(8H)-yl)-N-(piperidin-3-yl)acetamide hydrochloride]: the IC50 was 90.5 nM in the assay on NLRP3 inflammasome and more than 100000 nM in assay [1].
For `CC(O)c1nn(CC(=O)N[C@@H]2CCC[C@@](C)(O)C2)c(=O)c2cc3sc(Cl)cc3n12` (stereo partly drawn) [Ex 45, 2-(2-Chloro-5-(1-hydroxyethyl)-8-oxothieno[2′,3′:4,5]pyrrolo[1,2-d][1,2,4]triazin-7(8H)-yl)-N-((1R,3R)-3-hydroxy-3-methylcyclohexyl)acetamide], the figures for the IC50 (with NLRP3 inflammasome; in assay [1]) were 244 nM and more than 100000 nM, respectively.
With `CC(C)c1nn(CC(=O)N[C@@H]2CCC(=O)NC2)c(=O)c2cc3sc(F)cc3n12` [Ex 33, (R)-2-(2-Fluoro-5-isopropyl-8-oxothieno[2′,3′:4,5]pyrrolo[1,2-d][1,2,4]triazin-7(8H)-yl)-N-(6-oxopiperidin-3-yl)acetamide], the IC50 in the assay on NLRP3 inflammasome was 108 nM; in assay [1], more than 100000 nM.
As for `CN1CCC[C@@H](NC(=O)Cn2nc(C3CC3)n3c(cc4sc(Cl)cc43)c2=O)C1` [Ex 37, (R)-2-(2-Chloro-5-cyclopropyl-8-oxothieno[2′,3′:4,5]pyrrolo[1,2-d][1,2,4]triazin-7(8H)-yl)-N-(1-methylpiperidin-3-yl)acetamide], the IC50 in the assay on NLRP3 inflammasome is 101 nM; in assay [1], more than 100000 nM.
The like results for `O=C(Cn1nc(C2CC2)n2c(cc3sc(Cl)cc32)c1=O)N[C@@H]1CCCNC1` [Ex 36, (R)-2-(2-Chloro-5-cyclopropyl-8-oxothieno[2′,3′:4,5]pyrrolo[1,2-d][1,2,4]triazin-7(8H)-yl)-N-(piperidin-3-yl)acetamide hydrochloride] were, in that order, 109 nM and more than 100000 nM.
Consider `CC(C)c1nn(CC(=O)N[C@@H]2CCC[C@@](C)(O)C2)c(=O)c2cc3scnc3n12` [Ex 90, N-((1R,3R)-3-Hydroxy-3-methylcyclohexyl)-2-(5-isopropyl-8-oxothiazolo[5′,4′:4,5]pyrrolo[1,2-d][1,2,4]triazin-7(8H)-yl)acetamide], for which the IC50 is 60.8 nM in the assay on NLRP3 inflammasome and more than 100000 nM in assay [1].
The corresponding values for `CC(C)c1nn(CC(=O)Nc2ccncn2)c(=O)c2cc3sc(Cl)cc3n12` [Ex 1, 2-(2-Chloro-5-isopropyl-8-oxothieno[2′,3′:4,5]pyrrolo[1,2-d][1,2,4]triazin-7(8H)-yl)-N-(pyrimidin-4-yl)acetamide] are 20.2 nM and more than 100000 nM.
Regarding `CC(C)c1nn(CC(=O)N[C@@H]2CCC[C@H](O)C2)c(=O)c2cc3scnc3n12` [Ex 91, N-((1R,3S)-3-Hydroxycyclohexyl)-2-(5-isopropyl-8-oxothiazolo[5′,4′:4,5]pyrrolo[1,2-d][1,2,4]triazin-7(8H)-yl)acetamide], the IC50 in the assay on NLRP3 inflammasome is 1.9 nM; in assay [1], more than 100000 nM.
As to `CC(C)c1nn(CC(=O)NC23CC4CC(CC(O)(C4)C2)C3)c(=O)c2cc3sc(Cl)cc3n12` [Ex 114, 2-(2-Chloro-5-isopropyl-8-oxothieno[2′,3′:4,5]pyrrolo[1,2-d][1,2,4]triazin-7(8H)-yl)-N-((1S,3R,5S)-3-hydroxyadamantan-1-yl)acetamide], the IC50 in the assay on NLRP3 inflammasome is 298 nM; in assay [1], more than 11000 nM.
